Assay results published in patent publication US20030113330A1, “Methods for treating pulmonary fibrosis” (priority 1999, published 2003).
Values belong to the compound of their own block, whether it stands above or below them. Where no end group is shown, it is not given here. The star is where a group is joined. CH2Cl = ClC*; CH2F = FC*

Key:
[1] = tested on: primary alveolar epithelial cells (AEC); assay: Bleomycin-induced apoptosis of primary AEC in vitro
Description: (§1) Lung Cell Isolation and Detection of Apoptosis In Vitro. Primary alveolar epithelial cells (AEC) were isolated from adult male Wistar rats as described above. The primary cells were studied at day two of culture, a time at which they are type II cell-like by accepted morphologic and biochemical criteria, see Paine et al., Am. J. Physiol. […] All cells were seeded in 24-well or 6-well chambers, and all experiments were conducted at subconfluent densities of 80-90% in serum-free Ham's F12 medium. Test reagents were diluted with Ham's F12 medium and were applied for 20 hours at 37° C. in a 5% CO2 incubator.
(§2) Detection of apoptotic cells with propidium iodide (PI) was conducted as described above, following digestion of ethanol-fixed cells with DNAse-free RNAse in PBS containing 5 ug/ml PI.
Apoptosis was detected as described above.

primary rat AEC [2] = settings: for inhibition of amiodarone-induced apoptosis: captopril 500 ng/ml, saralasin 50 ug/ml, Losartan 5 pg/ml, amiodarone 2.5 ug/ml for chelerythrine, orthovanadate
Description: as §1, with “The human lung adenocarcinoma cell line A549 (ATCC) was cultured in Ham's F12 medium supplemented with 10% fetal bovine serum (FBS).” for “Lung Cell Isolation and Detection of Apoptosis In Vitro.”, “cells” for “cells (AEC)”, “rats.” for “rats as described above.”, “criteria.” for “criteria, see Paine et al., Am. J. Physiol.”, “37C.” for “37° C.”
(§3) Apoptotic cells were detected using propidium iodide (PI) following digestion of ethanol-fixed cells with DNAse-free RNAse in PBS containing 5 ug/ml PI. […] In replicate culture vessels, necrosis was detected as the loss of exclusion of PI after application of the vital dye directly to the cell culture medium at 5 ug/ml final concentration. Red fluorescent (PI-POSITIVE) cells (>570 nm) were scored over the subsequent hour as a percentage of the total cells in any given field. A minimum of 4 separate fields were scored in each of three separate culture vessels per experiment condition; all experiments were performed at least twice and the data were compiled. Although all necrotic cells are PI-positive, some apoptotic cells may also take up the dye but these comprise a minor fraction of the total dead cell population.
(§4) In all assays, detached cells were retained by centrifugation of the culture vessel at 300×g for 10 minutes with a centrifuge rotor designed for culture plates. For detection of necrosis (dye exclusion of PI), the PI was added directly to the cell culture medium immediately before centrifugation of the culture vessel. For detection of apoptosis, ethanol was added directly to the cell culture medium to a final concentration of 70% immediately before the centrifugation. Afterward, the ethanol was carefully removed and the total cell population (attached plus sedimented detached cells) were stained with PI as described above.

primary rat AEC [3] = assay: Angiotensin II-induced apoptosis in primary rat AEC (nuclear fragmentation, PI); format: cell-based; settings: ANGII 5.0 uM; saralasin 50 ug/ml, lisinopril 500 ng/ml
From the text: Cell Culture. The human lung adenocarcinoma cell line A549 was obtained from American Type Culture Collection and cultured in Ham's F12 medium supplemented with 10% fetal bovine serum (FBS). Primary alveolar epithelial cells were isolated from adult male Wistar rats as described in Uhal et al., Am. J. Physiol. Suppl. (Oct.) 261:110-117 (1991) and Uhal et al., Am. J. Physiol. 269:L819-L828 (1995). The primary cells were studied at day two of culture, a time at which they are type II cell-like by accepted morphologic and biochemical criteria, see Uhal, Am. J. Physiol. 272:L1031-L1045 (1997). […] J. Physiol. Suppl. (October) 261:110-117 (1991). All cells were seeded in 24-well or 6-well chambers, and all experiments were conducted at subconfluent densities of 80-90% in serum-free Ham's F12 medium. Test reagents were diluted with Ham's F12 medium and were applied for 20 h at 37° C. in a 5% CO2 incubator.
Detection of Apoptosis. Detection of apoptotic cells with propidium iodide (PI) was conducted as described in Uhal, et al., Am. J. Physiol. 275:L1013-1017 (1998) following digestion of ethanol-fixed cells with DNAse-free RNAse in PBS containing 5 ug/ml PI. Assay of Annexin V binding by flow cytometry was performed essentially as described for human lung fibroblasts in Uhal, et al., Am. J. Physiol. 275:L998-L1005 (1998) after trypsinization of cells from culture vessels. Assay of Caspase-3 activity was performed on viable suspension cultures as reported in Uhal, et al., Am. J. Physiol. 275:L1013-1017 (1998). In all assays, detached cells were retained by centrifugation of the culture vessels during fixation with 70% ethanol, or by retention of culture media and recovery by centrifugation before assay.
For microscopy, cells were cultured on glass cover slips, incubated with test reagents and fixed with 70% ethanol. The fixed cells were immunolabeled overnight at 4° C. with monoclonal antibodies to cytokeratins 7 and 19 (Chemicon International, Temecula, Calif.), and then for one hour at 37° C. with anti-mouse IgG-rhodamine and DNAse-free RNAse (Boehringer Mannheim, Indianapolis, Ind.) The cover slips were then rinsed in distilled water three times and mounted under Fluoromount Solution (Southern Biotechnology Associates, Birmingham, Ala.) containing 5 ug/ml propidium iodide. Photomicroscopy was performed as described in Uhal, et al., Am. J. Physiol. 275:L1013-1017 (1998).
Apoptosis in alveolar epithelial cells was quantitated by fluorescence detection of chromatin condensation and nuclear fragmentation in alcohol-fixed cells stained with propidium iodide. See Uhal, et al., Am. J. Physiol. 275:L1013-1017 (1998). […] After 20 h, the culture vessel was centrifuged to retain detached cells and labeled with anticytokeratin antibodies and propidium iodide. […] Double labeling with PI and monoclonal antibodies to cytokeratins 7 and 19 identified cells with both apoptotic nuclear morphology and positive anticytokeratin immunoreactivity.

primary rat AEC [4] = assay: Amiodarone-induced net cell loss in primary rat AEC cultures; format: cell-based; settings: 20 hours exposure
Description: (§5) Primary alveolar epithelial cells were isolated from adult male Wistar rats. The primary cells were studied at day two of culture, a time at which they are type II cell-like by accepted morphologic and biochemical criteria. All primary cell preparations were of better than 90% purity assessed by acridine orange staining. All cells were seeded in 24-well or 6-well chambers, and all experiments were conducted at subconfluent densities of 80-90% in serum-free Ham's F12 medium. Test reagents were diluted with Ham's F12 medium and were applied for 20 hours at 37C. in a 5% CO2 incubator.
(§6) Importantly, unattached cells were recovered and included in the analyses, and thus the data represent true loss of cells rather than simple detachment from the substratum.

A549 cells [5] = assay: Amiodarone-induced net cell loss in A549 cultures; format: cell-based, human; settings: 20 hours exposure
Description: as §5, §6

A549 cells [6] = settings: human, 20 h
Description: The human lung adenocarcinoma cell line A549 (ATCC) was cultured in Ham's F12 medium supplemented with 10% fetal bovine serum (FBS). Primary alveolar epithelial cells were isolated from adult male Wistar rats. The primary cells were studied at day two of culture, a time at which they are type II cell-like by accepted morphologic and biochemical criteria. […] All cells were seeded in 24-well or 6-well chambers, and all experiments were conducted at subconfluent densities of 80-90% in serum-free Ham's F12 medium. Test reagents were diluted with Ham's F12 medium and were applied for 20 hours at 37C. in a 5% CO2 incubator.
as §3, §4

[7] = tested on: primary cultures of rat AEC; format: cell-based; settings: male, Wistar, rat, 20 h
Description: (§7) The human lung adenocarcinoma cell line A549 (ATCC) was cultured in Ham's F12 medium supplemented with 10% fetal bovine serum (FBS). Primary alveolar epithelial cells were isolated from adult male Wistar rats. The primary cells were studied at day two of culture, a time at which they are type II cell-like by accepted morphologic and biochemical criteria. All primary cell preparations were of better than 90% purity assessed by acridine orange staining. All cells were seeded in 24-well or 6-well chambers, and all experiments were conducted at subconfluent densities of 80-90% in serum-free Ham's F12 medium. Test reagents were diluted with Ham's F12 medium and were applied for 20 hours at 37C. in a 5% CO2 incubator.

human A549 cells = format: cell-based; settings: human, 20 h
Description: as §7
Apoptotic cells were detected using propidium iodide (PI) following digestion of ethanol-fixed cells with DNAse-free RNAse in PBS containing 5 ug/ml PI. […] In replicate culture vessels, necrosis was detected as the loss of exclusion of PI after application of the vital dye directly to the cell culture medium at 5 ug/ml final concentration. Red fluorescent (PI-POSITIVE) cells (>570 nm) were scored over the subsequent hour as a percentage of the total cells in any given field. A minimum of 4 separate fields were scored in each of three separate culture vessels per experiment condition; all experiments were performed at least twice and the data were compiled. […]

[8] = tested on: primary rat alveolar epithelial cells; assay: Apoptosis of rat AEC induced by human lung fibroblast-conditioned media; format: cell-based; settings: saralasin 50 ug/ml, DEVD-fmk 60 uM, anti-ANGII IgG 1 ug/ml
primary rat AEC [9] = assay: Fas ligand-induced apoptosis of primary rat alveolar epithelial cells; format: cell-based; settings: captopril, lisinopril 500 ng/ml; caspase inhibitors 60 uM
Description: as §1, §2
Expression of FAS by alveolar epithelial cells is observed during bleomycin-induced fibrogenesis in mice. See Hagimoto, et al., Am. J. Respir. Cell Mol. Biol. 16:91-101 (1997). […] Apoptosis was detected by quantitation of fragmented nuclei (see above).
Cell Culture and Detection of Apoptosis. The human lung adenocarcinoma cell line A549 was obtained from American Type Culture Collection and cultured in Ham's F12 medium supplemented with 10% fetal bovine serum (FBS). Primary alveolar epithelial cells were isolated from adult male Wistar rats as described earlier (Uhal, B. D., I. Joshi, A. True, S. Mundle, A. Raza, A. Pardo and M. Selman. Fibroblasts isolated after fibrotic lung injury induce apoptosis of alveolar epithelial cells in vitro. Am. J. Physiol. 269:L819-L828, 1995); Wang, R., A. Zagariya, 0. Ibarra-Sunga, C. […] Am. J. Physiol. 276:L885-L889 (1999)). […] All cells were seeded in 24-well or 6-well chambers, and all experiments were conducted at subconfluent densities of 80-90% in serum-free Ham's F12 medium. Test reagents were diluted with serum-free Ham's F12 medium and were applied under serum-free conditions for 20 hours at 37C. in a 5% CO2 incubator. Detection of apoptotic cells with propidium iodide (PI) was conducted as described above Am. J. Physiol. 275:L1013-1017 (1998); Uhal et al., following digestion of ethanol-fixed cells with DNAse-free RNAse in PBS containing 5 μg/ml PI. In all assays, detached cells were retained by centrifugation of the culture vessels during fixation with 70% ethanol, or by retention of culture media and recovery by centrifugation before assay.
Apoptosis was detected by nuclear fragmentation as described above.

adult male Wistar rats = settings: 8 U/kg intratracheal, 14 days
Description: Adult male Wistar rats were given intratracheal instillations of 8 U/kg bleomycin sulfate (BLEO) or sterile saline. […] Lung fibrosis was assessed by picrosirius red (PR) quantitation of lung collagen and by hydroxyproline (HP) assay at 14 days after BLEO administration. At the same time point, fragmented DNA in lung epithelial cells was detected by in situ end labeling (ISEL).
Animals and Induction of Pulmonary Fibrosis. Forty adult male Wistar rats, 175-200 grams, were divided into four groups; three groups received a single intratracheal instillation of 8 units per kilogram of bleomycin sulfate (BLEO) in sterile saline. Two days before the administration of BLEO, one group received captopril in the drinking water at a concentration of 500 mg/liter. […] Control animals (NORM) received administrations of the vehicles only.
Immediately before sacrifice, animals were given intraperitoneal injections of sodium pentobarbital and the trachea was cannulated. The middle right lobe was ligated at the hilus, was excised distal to the ligation and was immediately frozen in liquid N2 for hydroxyproline assay of total collagen (see below). The remaining lung tissues were carefully removed and were instilled with 4% paraformaldehyde in PBS at 20 cm H2O constant pressure, then immersed in the same fixative for two hours. The fixed tissues were washed with PBS three times for 15 minutes and were then embedded in paraffin. Five-micron sections of lung were deparaffinized by passing through xylene, xylene:alcohol 1:1, 100% alcohol and 70% alcohol for 10 minutes each. Ethanol was removing by rinsing with distilled water.
In situ end-labeling (ISEL) of fragmented DNA. ISEL was conducted by a modification of the method of Mundle et al., Cell Death and Differentiation, 1: 117-122 (1994). Briefly, ethanol was removed from deparaffinized lung sections by rinsing in distilled water for at least 10 minutes. The slides were then placed in 3% hydrogen peroxide (Sigma Chemical, St. Louis, Mo.) for 30 minutes at 20° C., rinsed with PBS, and incubated with Proteinase K (Sigma Chemical, St. Louis, Mo.) in saline sodium citrate solution (SSC) (0.3 M NaCi and 30 mM sodium citrate in water, pH 7.0) for 15 minutes at 37° C. Samples were rinsed once in water, three times in 0.15 M PBS for 4 minutes each, and then incubated in SSC at 80° C. for 20 minutes. After four rinses in PBS and four rinses in Buffer A (50 mM Tris/HCl, 5 mM MgCl, 10 mM β-mercaptoethanol and 0.005% BSA in water, pH 7.5), the sections were incubated at 18° C. for two hours with ISEL solution (0.001 mM digoxigenin-dUTP, 20 U/ml DNA Polymerase 1 and 0.01 mM each of dATP, dCTP and dGTP in Buffer A). The sections were then rinsed thoroughly five times with Buffer A and three times with PBS. Detection of incorporated dUTP was achieved by incubation for two hours at 37° C. with AP-conjugated anti-digoxigenin (Boerhinger Mannheim, Indianapolis, Ind.) at a 1:400 dilution. Bound AP-antibody complexes were detected with the Fast Blue chromogen system and the sections were mounted with Fluoromount Solution (Southern Biotechnology, Birmingham, Ala.).
Identification of Collagen. Collagens were localized through staining of lung sections by the picrosirius red technique, see Pick et al., Am. J. Pathol. 134:365-371 (1989), which has absolute specificity for collagen. Briefly, sections deparaffinized with xylenes were rehydrated through a descending series of ethanols to distilled water. The hydrated sections were immersed in 0.2% aqueous phosphomolybdic acid for 2 minutes, rinsed in distilled water and then stained for 110 minutes with 0.1% Sirius Red F3BA (Pfal and Bauer, Stamford, Conn.) in saturated aqueous picric acid, pH 2.0. The sections were washed for 2 minutes in 0.01 N HCl, rinsed for 45 seconds in 70% ethanol, dehydrated in three changes of absolute alcohol, cleared in xylene and mounted in a nonaqueous mounting medium.

Compound: O=C(O)C1=CC(=C(c2ccc(O)c(C(=O)O)c2)c2ccc(O)c(C(=O)O)c2)C=CC1=O [aurintricarboxylic acid]
inhibition at 10 µM ([1]; Rattus norvegicus, Epithelial cell, read-out: inhibition of bleomycin-induced apoptosis of AEC in vitro): 59%

Compound: COc1ccc2c(c[n+](C)c3c4cc5c(cc4ccc23)OCO5)c1OC [chelerythrine]
inhibition of amiodarone-induced apoptosis (primary rat AEC [2]): significantly inhibited
inhibition of ANGII-induced apoptosis of primary rat AEC (primary rat AEC [3]): significantly inhibited

effect on total cell number (primary rat AEC [4]): significantly decreased
effect on total cell number (A549 cells [5]): significantly decreased
Compound: CCCCc1oc2ccccc2c1C(=O)c1cc(I)c(OCCNCC)c(I)c1 [desethylamiodarone]
concentration at which significant apoptosis begins (primary rat AEC [2]; male, Wistar, rat, 20 h): 2500 ng/mL
concentration at which apoptosis begins (A549 cells [6]): 5000 ng/mL
concentration at which significant cell death / toxicity begins [7]: 100 ng/mL
cytotoxicity at the higher doses [7]: ~100%
concentration at which necrosis / significant cell death begins (human A549 cells): 5000 ng/mL

Compound: [Na+].[Na+].[Na+].[O]=[V]([O-])([O-])[O-] [sodium orthovanadate]
inhibition of amiodarone-induced apoptosis (primary rat AEC [2]): not

Compound: Asp-Glu-Val-Asp-[O-Me]-CH2F (DEVD(OMe)-CH2F; not fully specified; printed as Asp-Glu-Val-Asp-[O-Me]-CH2F) [DEVD-fmk]
inhibition of apoptosis induced by HIPF-conditioned media [8]: completely abrogated
inhibition of Fas ligand-induced apoptosis of primary rat AEC (words) (primary rat AEC [9]): comparable efficacy to inhibit apoptosis

Compound: Tyr-Val-Ala-Asp-[O-Me]-CH2Cl (YVAD(OMe)-CH2Cl; not fully specified; printed as Tyr-Val-Ala-Asp-[O-Me]-CH2Cl) [YVAD-cmk]
inhibition of Fas ligand-induced apoptosis of primary rat AEC (words) (primary rat AEC [9]): comparable efficacy to inhibit apoptosis

Compound: bleomycin sulfate
increase in alveolar septal collagen (picrosirius red) (adult male Wistar rats): 100%
increase in peribronchial collagen (picrosirius red) (adult male Wistar rats): 133%
concentration at which induction of apoptosis was statistically significant ([1]; 20 h): 5 µM
